Measured values taken from PubChem BioAssay AID1919008 (Molecular Pharmacology Branch, DTP, NCI, 2023).

Tested on: DMS-114 complex spheroids with HUVEC/MSC, growth % test/control
Test: Anticancer human tumor DMS-114 cell line growth inhibition [AhR];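 also: spheroids exposed to agents for 7 days before readout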;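 as to viability, T/C: 100% = DMSO vehicle control wells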
Settings: for IC50: curve of first compound; for viability, T/C: stronger effect = lower value
Procedure, shortened: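 Complex tumor spheroids co-cultured with HUVEC and human MSC stroma; AhR antagonists tested in combination with standard-of-care and investigational agents. Top concentration at or near clinical Cmax (else 10 microM), half-log dilutions; growth expressed as percent test/control.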

[1] = second compound 0.1 µM, first compound 0.0316 µM
[2] = second compound 0.1 µM, first compound 0.1 µM
[3] = second compound 0.1 µM, first compound 0.316 µM
[4] = second compound 0.1 µM, first compound 1 µM
[5] = second compound 0.1 µM, first compound 3.16 µM
[6] = second compound 0.1 µM, first compound 10 µM
[7] = second compound 0.316 µM, first compound 0.0316 µM
[8] = second compound 0.316 µM, first compound 0.1 µM
[9] = second compound 0.316 µM, first compound 0.316 µM
[10] = second compound 0.316 µM, first compound 1 µM
[11] = second compound 0.316 µM, first compound 3.16 µM
[12] = second compound 0.316 µM, first compound 10 µM
[13] = second compound 1 µM, first compound 0.0316 µM
[14] = second compound 1 µM, first compound 0.1 µM
[15] = second compound 1 µM, first compound 0.316 µM
[16] = second compound 1 µM, first compound 1 µM
[17] = second compound 1 µM, first compound 3.16 µM
[18] = second compound 1 µM, first compound 10 µM
[19] = second compound 3.16 µM, first compound 0.0316 µM
[20] = second compound 3.16 µM, first compound 0.1 µM
[21] = second compound 3.16 µM, first compound 0.316 µM
[22] = second compound 3.16 µM, first compound 1 µM
[23] = second compound 3.16 µM, first compound 3.16 µM
[24] = second compound 3.16 µM, first compound 10 µM
[25] = second compound 10 µM, first compound 0.0316 µM
[26] = second compound 10 µM, first compound 0.1 µM
[27] = second compound 10 µM, first compound 0.316 µM
[28] = second compound 10 µM, first compound 1 µM
[29] = second compound 10 µM, first compound 3.16 µM
[30] = second compound 10 µM, first compound 10 µM

Compound | IC50 (second compound 0.1 µM) [nM] | IC50 (second compound 0.316 µM) [nM] | IC50 (second compound 1 µM) [nM] | IC50 (second compound 3.16 µM) [nM] | IC50 (second compound 10 µM) [nM] | viability, T/C [1] [%] | viability, T/C [2] [%] | viability, T/C [3] [%] | viability, T/C [4] [%] | viability, T/C [5] [%] | viability, T/C [6] [%] | viability, T/C [7] [%] | viability, T/C [8] [%] | viability, T/C [9] [%] | viability, T/C [10] [%] | viability, T/C [11] [%] | viability, T/C [12] [%] | viability, T/C [13] [%] | viability, T/C [14] [%] | viability, T/C [15] [%] | also measured
Nc1ccccc1NC(=O)c1ccc(CNC(=O)OCc2cccnc2)cc1 + Cc1ccccc1N=Nc1ccc(NC(=O)c2ccnn2C)c(C)c1 | 2220 | 2410 | 2340 | 2460 | 2410 | 91.5 | 102 | 91.5 | 72.9 | 40.1 | 23.3 | 95.7 | 102 | 94.8 | 72.5 | 43.7 | 23.1 | 91.8 | 95.9 | 90 | viability, T/C [16]: 73.4%; viability, T/C [17]: 41.8%; viability, T/C [18]: 25.1%; viability, T/C [19]: 98.6%; viability, T/C [20]: 88.7%; viability, T/C [21]: 84.5%; viability, T/C [22]: 68.8%; viability, T/C [23]: 43.9%; viability, T/C [24]: 23.5%; viability, T/C [25]: 91.6%; viability, T/C [26]: 87.3%; viability, T/C [27]: 85.5%; viability, T/C [28]: 72.8%; viability, T/C [29]: 42.9%; viability, T/C [30]: 26.1%
O=C(C=Cc1cccc(S(=O)(=O)Nc2ccccc2)c1)NO + Cc1ccccc1N=Nc1ccc(NC(=O)c2ccnn2C)c(C)c1 | 1850 | 1720 | 1750 | 1660 | 1670 | 101 | 101 | 96.1 | 74.5 | 27.4 | 30.3 | 96.6 | 95.2 | 101 | 68.8 | 30.1 | 27.4 | 99 | 102 | 94.7 | viability, T/C [16]: 71.1%; viability, T/C [17]: 26.4%; viability, T/C [18]: 29.1%; viability, T/C [19]: 101%; viability, T/C [20]: 97.5%; viability, T/C [21]: 91.2%; viability, T/C [22]: 66%; viability, T/C [23]: 28.7%; viability, T/C [24]: 28.7%; viability, T/C [25]: 88.7%; viability, T/C [26]: 96.1%; viability, T/C [27]: 86.5%; viability, T/C [28]: 65.8%; viability, T/C [29]: 29.5%; viability, T/C [30]: 29.9%
O=C(c1cc(Cc2n[nH]c(=O)c3ccccc23)ccc1F)N1CCN(C(=O)C2CC2)CC1 + Cc1ccccc1N=Nc1ccc(NC(=O)c2ccnn2C)c(C)c1 | > 10000 | > 10000 | > 10000 | > 10000 | > 10000 | 109 | 107 | 103 | 111 | 110 | 97.5 | 122 | 109 | 112 | 105 | 97.9 | 94.7 | 113 | 95.8 | 111 | viability, T/C [16]: 105%; viability, T/C [17]: 102%; viability, T/C [18]: 105%; viability, T/C [19]: 105%; viability, T/C [20]: 111%; viability, T/C [21]: 94.7%; viability, T/C [22]: 102%; viability, T/C [23]: 94.2%; viability, T/C [24]: 103%; viability, T/C [25]: 87.2%; viability, T/C [26]: 103%; viability, T/C [27]: 87.2%; viability, T/C [28]: 91.2%; viability, T/C [29]: 88.3%; viability, T/C [30]: 81%
